# Results as given in patent US7223572B1, “Methylophilus methylotrophus having enhanced dihydrodipicolinate synthase and/or aspartokinase activity for L-amino acid production” (Ajinomoto Co., Inc., priority 1999, dated 2007).
# Test system: AK
# Test: AK activity of cell-free extracts, with and without L-lysine (method of Stadtman)
# Type: biochemical, Methylophilus methylotrophus
# Settings: L-lysine alone
# Procedure: Cell-free extracts were prepared from the Methylophilus methylotrophus AS1 strain containing the RSFD80 plasmid (also referred to as “AS1/RSFD80” hereinafter) and the Methylophilus methylotrophus AS1 strain containing the pRS plasmid (also referred to as “AS1/pRS” hereinafter), and AK activity was measured. The cell-free extracts (crude enzyme solutions) were prepared as follows. The AS1/RSFD80 strain and AS1/pRS strain were each inoculated to 121 production medium of the above composition containing 20 mg/L of streptomycin, cultured at 37° C. for 34 hours with shaking, and then calcium carbonate was removed and cells were harvested.
# The bacterial cells obtained as described above were washed with 0.2% KCl under a condition of 0° C., suspended in 20 mM potassium phosphate buffer (pH 7) containing 10 mM MgSO4, 0.8 M (NH4)2SO4 and 0.03 M β-mercaptoethanol, and disrupted by sonication (0° C., 200 W, 10 minutes). […]
# The measurement of AK activity was performed in accordance with the method of Stadtman (Stadtman, E. R., Cohen, G. N., LeBras, G., and Robichon-Szulmajster, H., J. Biol. Chem., 236, 2033 (1961)). […] The reaction solution was centrifuged, and absorbance of the supernatant was measured at 540 nm. […] When the enzymatic activity was measured, L-lysine was added to the enzymatic reaction solution at various concentrations to examine degree of inhibition by L-lysine.
smiles,measurement,value
NCCCC[C@H](N)C(=O)O [L-lysine],inhibition of AK originally retained by the AS1 strain,not inhibited
